Measurements published in patent US8546582B2, “Sulfenamide, vulcanization accelerator containing the sulfenamide for rubber, and process for producing the vulcanization accelerator” (Ouchi Shinko Chemical Industrial Co., Ltd., priority 2007, dated 2013).
Values joined by “and” are separate entries in the source; they are usually repeats but may differ in a detail not shown here. Equal entries are not always repeated.

What was measured:
[1] = stated in TRGS552 (non-patent document 3); cited from earlier work
microorganisms = settings: safety checks of existing chemical substances; cited from earlier work
fish and shellfish = settings: Official Bulletin of Economy, Trade and Industry, Dec. 22, 2005; cited from earlier work
[2] = 1-octanol/water distribution coefficient by high-performance liquid chromatography (JIS Z7260-117); assay type: physicochemical; settings: HPLC
Method: For N-methyl-N-t-butylbenzothiazole-2-sulfenamide (BMBS) synthesized in Example 1, N-ethyl-N-t-butylbenzothiazole-2-sulfenamide (BEBS) synthesized in Example 2, N-n-propyl-N-t-butylbenzothiazole-2-sulfenamide (BPBS) synthesized in Example 3, N-n-butyl-N-t-butylbenzothiazole-2-sulfenamide (BBBS) synthesized in Example 4, and N,N-dicyclohexylbenzothiazole-2-sulfenamide (DCBS) which is a conventional compound, the 1-octanol/water distribution coefficient was measured by high-performance liquid chromatography according to JIS Z7260-117.

carp = assay: test on the degree of bioconcentration of a chemical substance in the body of fish and shellfish; assay type: in vivo; settings: for Concentration ratio (times), average / Concentration ratio (times): carp; for Concentration ratio (times): single values
Method: For BEBS synthesized in Example 2, a test on the degree of bioconcentration of a chemical substance in the body of fish and shellfish was carried out according to “Shinki Kagaku Busshitsu To Nikakaru Shiken No Hoho Nitsuite (Circular on Test Methods of New Chemical Substances)” (Yakushokuhatsu No. 1121002 dated Nov. 21, 2003, Seikyoku No. 2 dated on Nov. 13, 2003, Kanhokihatsu No. 03121002).
Test bioconcentration: First bioconcentration area 1 μg/L • Second bioconcentration area 0.1 μg/L
Exposure duration: 22 days
Exposure method: Continuous flow-through
Analytical method: High-performance liquid chromatography

[3] = first concentration area 1 μg/L, after 14 days
[4] = first concentration area 1 μg/L, after 22 days
[5] = second concentration area 0.1 μg/L, after 14 days
[6] = second concentration area 0.1 μg/L, after 22 days

Q: Which carcinogenicity [1] does the source give for `CN(N=O)C(C)(C)C` [N-nitroso-N-methyl-t-butylamine] here?
A: not carcinogenic

Q: Which carcinogenicity [1] does the source give for `CCN(N=O)C(C)(C)C` [N-nitroso-N-ethyl-t-butylamine] here?
A: not carcinogenic

Q: With `CCCCN(N=O)C(C)(C)C` [N-nitroso-N-n-butyl-t-butylamine] as the molecule, how does the carcinogenicity [1] read?
A: not carcinogenic

Q: For `c1ccc2sc(SN(C3CCCCC3)C3CCCCC3)nc2c1` [DCBS, N,N-dicyclohexylbenzothiazole-2-sulfenamide], which degradability (microorganisms) is on record?
A: hardly degradable

Q: And the “concentration ratio (BCFSS)” value (fish and shellfish)?
A: 6000 times

Q: What about the chromatographic logP ([2]; read-out: logPow) of the same molecule?
A: 7.4

Q: For `CCN(Sc1nc2ccccc2s1)C(C)(C)C` [BEBS, N-ethyl-N-t-butylbenzothiazole-2-sulfenamide], which “Concentration ratio (times), average” value (carp; [3]) is on record?
A: 180 times

Q: What about the “Concentration ratio (times)” value (carp; [3]) of the same molecule?
A: 120 times and 240 times

Q: What about the “Concentration ratio (times), average” value (carp; [4]) of the same molecule?
A: 170 times

Q: What about the “Concentration ratio (times)” value (carp; [4]) of the same molecule?
A: 180 times and 170 times

Q: What about the “Concentration ratio (times), average” value (carp; [5]) of the same molecule?
A: 180 times

Q: And the “Concentration ratio (times)” value (carp; [5])?
A: 180 times and 190 times

Q: What about the “Concentration ratio (times), average” value (carp; [6]) of the same molecule?
A: 160 times

Q: And the “Concentration ratio (times)” value (carp; [6])?
A: 180 times and 130 times

Q: And the bioaccumulation or bioconcentration (carp; preliminary test, in 22 days)?
A: 180 times

Q: For `CCCN(Sc1nc2ccccc2s1)C(C)(C)C` [BPBS, N-n-propyl-N-t-butylbenzothiazole-2-sulfenamide], which melting point is on record?
A: 55 to 56 °C

Q: For `CN(Sc1nc2ccccc2s1)C(C)(C)C` [BMBS, N-methyl-N-t-butyl benzothiazole-2-sulfenamide], which logPow [2] is on record?
A: 4.5

Q: For `CCCCN(Sc1nc2ccccc2s1)C(C)(C)C` [BBBS, N-n-butyl-N-t-butylbenzothiazole-2-sulfenamide], which melting point is on record?
A: 55 to 56 °C

Q: With `O=NN(C1CCCCC1)C1CCCCC1` [N-nitrosodicyclohexylamine] as the molecule, how does the carcinogenicity [1] read?
A: not carcinogenic
